Experimental data from patent publication US20230322753A1, “HETEROARYL DERIVATIVE, METHOD FOR PREPARATION THEREOF, AND PHARMACEUTICAL COMPOSITION COMPRISING SAME AS ACTIVE INGREDIENT” (VORONOI INC., priority 2020, published 2023).

The compounds below were run on Ba/F3 cells expressing EGFR Exon20 ins NPH (assay: Ba/F3 proliferation suppression activity, cells expressing EGFR Exon20 ins NPH). Conditions: Mus musculus, BaF3, 72 hours, CellTiter-Glo.
Format: cell-based
Procedure: A following experiment was carried out to evaluate the suppression activity of the compounds according to the present invention against the proliferation of Ba/F3 which expresses EGFR mutations.
For the Ba/F3 cells, a RPMI-1640 medium containing 10% FBS and 5 ng/ml IL-3 (R&D Systems) was used. The transduced Ba/F3 cells were cultured in a medium, which is same as the above medium, but 1 ug/ml puromycin (Invitrogen) was additionally added to.
24 hours before the treatment of the cells with the compounds, 3000 to 5000 cells were distributed into each well of a white clear bottom 96 well plate (Corning). The compounds were diluted in a dimethyl sulfoxide (e.g. dilution ratio of 3:1 and total 12 concentrations) and then injected by 0.5 ul respectively, such that a final concentration amounted to 0.3 nM to 50 uM. 72 hours after the treatment with the compounds, the measurement of live cells was made in such way that these cells were stored for 10 minutes at a room temperature using a CellTiter-Glo luminescent cell-viability reagent (Promega) and then their luminescence intensities were measured using a reader (i.e. Synergy Neo, Biotek). Each test was repeated three times.
resulting values were calculated as a cell growth ratio (%) compared to a control. Then, the graphs were drawn and the […] values were calculated by using a program, GraphPad Prism version 5.0.
Compound `C=CC(=O)Nc1cc(Nc2cc(N3OCC[C@@H]3c3cc(F)cc(C(F)(F)F)c3)ncn2)c(OC)cc1N1CCC(N2CCC2)CC1` [Compound 19] has a GI50 of under 50 nM.
`C=CC(=O)Nc1cc(Nc2cc(N3OCCC3c3cc(Cl)cc(C(F)(F)F)c3)ncn2)c(OC)cc1N1CCC(N2CCN(C3CC3)CC2)CC1` (stereo not drawn) [Compound 51] gave a GI50 of 50 to 500 nM.
With `C=CC(=O)Nc1cc(Nc2cc(N3OCC[C@@H]3c3cc(F)cc(F)c3)ccn2)c(OC)cc1N1CCC(N2CCN(C3CC3)CC2)CC1` [Compound 98] the GI50 was 50 to 500 nM.
Compound `C=CC(=O)Nc1cc(Nc2cc(N3OCC[C@@H]3c3ccc(F)c(C(F)(F)F)c3)ncn2)c(OC)cc1N1CCCN(C)CC1` [Compound 40] has a GI50 of under 50 nM.
In the case of `C=CC(=O)Nc1cc(Nc2cc(N3OCC[C@@H]3c3cccc(C(F)(F)F)c3F)ncn2)c(OC)cc1N1CCC(N2CCNCC2)CC1` [Compound 97], the GI50 is reported as under 50 nM.
`C=CC(=O)Nc1cc(Nc2cc(N3OCC[C@@H]3c3cccc(C(F)(F)F)c3F)ncn2)c(OC)cc1N1CCC(N2CCN(C)CC2)CC1` [Compound 90] gave a GI50 of under 50 nM.
Compound `C=CC(=O)Nc1cc(Nc2cc(N3OCC[C@@H]3c3cc(F)cc(C(F)(F)F)c3)ncn2)c(OC)cc1N1CCN(C2CC2)[C@@H](C)C1` [Compound 6] has a GI50 of 50 to 500 nM.
Compound `C=CC(=O)Nc1cc(Nc2cc(N3OCC[C@@H]3c3cccc(C(F)(F)F)c3F)ncn2)c(OC)cc1N1CCC[C@@H]1CN1CCC1` [Compound 72] has a GI50 of 50 to 500 nM.
For `C=CC(=O)Nc1cc(Nc2cc(N3OCC[C@@H]3c3cccc(C(F)(F)F)c3F)ncn2)c(OC)cc1N1CCN(C2COC2)CC1` [Compound 69], the GI50 was under 50 nM.
Work on `C=CC(=O)Nc1cc(Nc2cc(N3OCC[C@@H]3c3cccc(C(F)(F)F)c3F)ncn2)c(OC)cc1N1CCC(N(C)C)CC1` [Compound 82] yielded a GI50 of under 50 nM.
`C=CC(=O)Nc1cc(Nc2cc(N3OCC[C@@H]3c3cccc(C(F)(F)F)c3)ncn2)c(OC)cc1N1CCN(C)[C@@H](C)C1` [Compound 7] was tested, and the GI50 was under 50 nM.
With `C=CC(=O)Nc1cc(Nc2cc(N3OCC[C@@H]3c3cccc(C(F)(F)F)c3F)ncn2)c(OC)cc1N1CCO[C@H](C)C1` [Compound 79] the GI50 was 50 to 500 nM.
In the case of `C=CC(=O)Nc1cc(Nc2cc(N3OCC[C@@H]3c3cccc(C(F)(F)F)c3F)ncn2)c(OC)cc1N1CCN(CCC)CC1` [Compound 93], the GI50 is reported as under 50 nM.
With `C=CC(=O)Nc1cc(Nc2cc(N3OCC[C@@H]3c3cccc(C(F)(F)F)c3F)ncn2)c(OC)cc1N1CCN(C)C(=O)C1` [Compound 85] the GI50 was 50 to 500 nM.
`C=CC(=O)Nc1cc(Nc2cc(N3OCC[C@@H]3c3cccc(C(F)(F)F)c3F)ncn2)c(OC)cc1N1CCC(N2CCN(C3CC3)[C@H](C)C2)CC1` [Compound 68] was tested, and the GI50 was 50 to 500 nM.
Work on `C=CC(=O)Nc1cc(Nc2cc(N3OCC[C@@H]3c3cccc(C(F)(F)F)c3F)ncn2)c(OC)cc1N1CC[C@@H](CN(C)C)C1` [Compound 95] yielded a GI50 of under 50 nM.
`C=CC(=O)Nc1cc(Nc2cc(N3OCC[C@@H]3c3cc(F)cc(F)c3)ccn2)c(OC)cc1N1CCN(C)CC1` [Compound 100] was tested, and the GI50 was 500 to 5000 nM.
`C=CC(=O)Nc1cc(Nc2cc(N3OCC[C@@H]3c3ccc(Cl)c(C(F)(F)F)c3)ncn2)c(OC)cc1N1CCN(CC)CC1` [Compound 33] gave a GI50 of 50 to 500 nM.
With `C=CC(=O)Nc1cc(Nc2cc(N3OCC[C@@H]3c3cc(F)cc(F)c3)ncn2)c(OCC(F)(F)F)nc1N1CCN(C)CC1` [Compound 128] the GI50 was 50 to 500 nM.
In the case of `C=CC(=O)Nc1cc(Nc2cc(N3OCC[C@@H]3c3cccc(C(F)(F)F)c3F)ncn2)c(OC)cc1N1CCC(N2C[C@@H](C)O[C@@H](C)C2)CC1` [Compound 73], the GI50 is reported as under 50 nM.
`C=CC(=O)Nc1cc(Nc2cc(N3OCC[C@@H]3c3cccc(C(F)(F)F)c3F)ncn2)c(OC)cc1N1CCOCC1` [Compound 65] showed a GI50 of 50 to 500 nM.
Compound `C=CC(=O)Nc1cc(Nc2cc(N3OCC[C@@H]3c3cccc(C(F)(F)F)c3)ncn2)c(OC)cc1N1CCC(N2CCC2)CC1` [Compound 21] has a GI50 of under 50 nM.
Compound `C=CC(=O)Nc1cc(Nc2cc(N3OCC[C@@H]3c3cccc(C(F)(F)F)c3F)ncn2)c(OC)cc1N1CCC(N2CCN(C(C)C)CC2)CC1` [Compound 78] has a GI50 of under 50 nM.
Compound `C=CC(=O)Nc1cc(Nc2cc(N3OCC[C@@H]3c3cccc(C(F)(F)F)c3F)ncn2)c(OC)cc1N1C[C@H]2C[C@@H]1CO2` [Compound 86] has a GI50 of 50 to 500 nM.
